Five molecules from patent US20250327027A1, “METHODS TO GENERATE ENHANCED TUMOR INFILTRATING LYMPHOCYTES THROUGH MICROFLUIDIC DELIVERY” (STEMCELL TECHNOLOGIES CANADA INC., priority 2021, published 2025) can be followed below.

Series [1] relates to melanoma and colorectal TILs. The series is described as follows: Post thaw analysis of cryopreserved squeeze processed TILs (effect of DMSO and HSA). The class given is cell-based. Particulars: DMSO 0% to 5%.
Procedure: To evaluate whether freeze-thaw (including any effect from one or more of the cryopreservatives) has an effect on the squeeze processed TILs described herein, the following methods were used and the mRNA translation and phenotypic expression were assessed. Briefly, cryopreserved, squeezed melanoma and colorectal TILs were thawed and resuspended in CTS OpTmizer media. Post thaw cell recovery and viability were measured via NC-200. Cells were plated in tissue culture-treated plates and incubated for 4, 24 hours, and 8 days in a 37° C. incubator. The TILs were squeezed were assessed at each time point including t=0 (immediately post thaw) by flow cytometry for viability, surface levels of mbIL-2 and mbIL-12, and phenotypic markers such as CCR7, CD45RO, CD62L, CD127, KLRG-1, CD25, CD69, CD39, CD103, and CD25.
To assess the potential impact from DMSO, the following TILs were formulated in varying concentrations of DMSO (i.e., 0%, 1.25%, 2.5%, and 5%): (1) TILs squeeze processed with mRNA encoding membrane-bound LL-2 and mRNA encoding IL-12; and (2) non-squeeze processed TILs. Each of the formulated samples also contained 5% human serum albumin. Then, the TILs were cryopreserved and subsequently thawed as described above.
The subject of series [2] is TILs. The series can be described thus: Effect of cytokine (IL-2 or IL-15) during TIL expansion (colorectal tumor). In kind it is cell-based. Particulars: for Cell Count on Day 13 / Viability on Day 13: replicate wells. On the procedure: Briefly, freshly resected colorectal tumor was rinsed in 1× Hank's Balanced Salt Solution (HBSS) with 10 µg/mL gentamicin and dissected into 8-27 mm^3 fragments using a forceps and scalpel. […] The G-Rex6M plate was then placed in a 37° C., 5% CO2 incubator for 3 days.
On day 3, the G-Rex6M plate was removed from the incubator. […] The G-Rex6M plate was returned to the 37° C., 5% CO2 incubator. On day 7 and 10, the G-Rex6M plate was removed from the incubator. […] The G-Rex6M plate was returned to the 37° C., 5% CO2 incubator.
[…] The number and viability of the TILs was assessed using a NucleoCounter NC-200.

Series [3] has as its system post-REP TILs. The series is described as follows: Engineered TIL resistance to intrinsic apoptosis induced by Venetoclax and S63548 (Apotracker, Bcl-2 FACS). The class given is cell-based, human. On the procedure:
Fresh post-REP TILs were collected from a 6-well G-Rex plate, centrifuged at 400 rcf at room temperature, and then washed and resuspended to 3-10M/mL in AIM V and transferred to a T25 flask and cultured at 37° C. for 24 hr. The cells were then prepared for squeeze-processing. The cells were counted, filtered through a 40-um cell strainer, washed, and the concentration was adjusted to 60M/mL by adding XVivo-15.
As shown above in Table 13, Group A was used as a control (i.e., not contacted with any payload and not squeeze processed). Group 13 was squeeze processed without any payload at room temperature using a microfluidic constriction (70 μm depth, 4.5 un width, and 10 μm length) at 30 psi. Groups C-H were squeeze processed at room temperature with the payloads shown above, i.e., Group C: mbIL-7 mRNA; Group D: Bcl-2 mRNA; Group E: mbIL-7 mRNA+Bcl-2 mRNA; Group F: mbIL-2 mRNA; Group G: mbIL-2 mRNA+Bcl-2 mRNA; Group H: mbIL-2 mRNA+mbIL-7 mRNA+Bcl-2 mRNA. Groups C-H were squeeze processed using the same conditions as in Group B (i.e., microfluidic constriction: 70 μm depth, 4.5 μm width, and 10 μm length; at 30 psi). […]
At 24 hours, 200 ul of cells were aspirated and centrifuged at 400 ref for 4 minutes at room temperature. […] The cells were then analyzed using an Attune Flow cytometer.

The test system of series [4] is post-REP TILs. The series can be described thus: Proliferative capacity of CD62L positive mbIL-2 and mbIL-12 engineered TILs. In kind it is cell-based, human. The settings on record: baseline CD62L positive and baseline CD62L negative fractions; day 4. On the procedure:
Fresh TILs from two donors on day 14 of REP were prepared for squeeze-processing Donors were processed in parallel throughout the experiment. TILs were centrifuged at 400 rcf for 4 minutes at room temperature. The supernatant was aspirated, and the cell populations were separately resuspended in 1 mL FACs buffer Cells were incubated at 4 C for 20 minutes with fluorescent anti-human antibody targeting CD62L. After incubation 150 μL of FACs isolation buffer were added to each sample and the samples were spun at 400 rcf for 4 minutes. Cells were then isolated using magnetic beads that select based on fluorescence as a proxy for CD62L expression. Cell fractions were incubated for 20 minutes at 37 C with 1 μM final cytoplasmic dyes; CD62L positive cells were incubated with dye that excites/emits at 405/450 nm and CD62L negative cells were incubated with dye that excites/emits at […]. The cells were then pooled, counted, filtered through a 40-um cell strainer, washed, and the concentration was adjusted to 50-80M/mL by adding XVivo-15.
As shown above in Table 18, Groups A and E were used as controls (i.e., not contacted with any payload and not squeeze processed). […]
At days 1, 4, and 6, 200 ul of cells were aspirated and centrifuged at 400 rcf for 4 minutes at room temperature. […] The cells were then analyzed using an Attune Flow cytometer.

Series [5] concerns post-REP TILs. The series can be described thus: mbIL-7 and Bcl-2 engineered TILs resistance to rhIL-7 sink effect (viability). In kind it is cell-based, human. The settings on record: day 5; 250 μg/mL mbIL-7 mRNA. On the procedure:
Three 50M cell vials were thawed and diluted with FACs buffer. […] Cells were transferred to a T75 flask and cultured at 37° C. To allow the cells to recover from thaw, cells were cultured for 72 hr.
Cells were prepared for squeeze-processing. Cells were collected, centrifuged at 400 rcf at room temperature, and then washed, resuspended to 3-10M/mL in AIM V media without rhIL-2 to remove rhIL-2-dependent support prior to squeeze processing, transferred to a T25 flask, and cultured at 37° C. for 24 hours. The cells were then counted, filtered through a 40-um cell strainer, washed, and the concentration was adjusted to 50M/mL by adding XVivo-15.
As shown above in Table 19, Group A was used as a control (i.e., not contacted with any payload and not squeeze processed). Group 13 was squeeze processed without any payload at room temperature using microfluidic constrictions (70 μm depth, 4.5 m width, and 10 μm length) at 30 psi. […]
At days 1 and 5, 200 ul of cells were aspirated and centrifuged at 400 rcf for 4 minutes at room temperature. […] The cells were then analyzed using an Attune Flow cytometer.

Several values for one entry are separate records, joined by “and”; a condition that tells them apart may be missing. Equal values may be shown once.

For the molecule `C[S+](C)[O-]` [DMSO], the “translation of the delivered mRNAs post-thaw” value in series [1] was “did not have a negative impact on the translation of the delivered mRNAs”. In series [1] (squeeze-processed and unprocessed TILs), the “viability over time after thaw” value is on record as “less DMSO also led to lower viability over time after thaw”.

For “IL-15: recombinant IL-15 added to culture media”, in series [2] (500 U/mL IL-15), the “Cell Count on Day 13” value was 1.92 × 10^7 and 8.32 × 10^6; the “Viability on Day 13” value is 96.5% and 93.3%. In addition, in series [2] (3,000 U/mL IL-15), the “Cell Count on Day 13” value is 3.34 × 10^6 and 2.96 × 10^7; the “Viability on Day 13” value was 94.8% and 91.3%. For the same molecule, the “TIL expansion in culture” value in series [2] (colorectal tumor fragments) is given as “promote TIL expansion”.

`CC1(C)CCC(CN2CCN(c3ccc(C(=O)NS(=O)(=O)c4ccc(NCC5CCOCC5)c([N+](=O)[O-])c4)c(Oc4cnc5[nH]ccc5c4)c3)CC2)=C(c2ccc(Cl)cc2)C1` [Venetoclax]: the “apoptosis as measured by Apotracker dye” value in series [3] (10, 100 or 1000 nM each of Venetoclax and S63548, 24 hours) is reported as “induced apoptosis”. The “concentration with strongest dynamic range of cell killing” value in series [3] (Venetoclax and S63548 together) worked out at 10 nM.

B1: rhIL-12: recombinant human IL-12 added to culture (protein, UniProt P29459 23-219; P29460 23-328, looked up)
Interleukin-12 subunit alpha: RNLPVATPDPGMFPCLHHSQNLLRAVSNMLQKARQTLEFYPCTSEEIDHEDITKDKTSTVEACLPLELTKNESCLNSRETSFITNGSCLASRKTSFMMALCLSSIYEDLKMYQVEFKTMNAKLLMDPKRQIFLDQNMLAVIDELMQALNFNSETVPQKSSLEEPDFYKTKIKLCILLHAFRIRAVTIDRVMSYLNAS
Interleukin-12 subunit beta: IWELKKDVYVVELDWYPDAPGEMVVLTCDTPEEDGITWTLDQSSEVLGSGKTLTIQVKEFGDAGQYTCHKGGEVLSHSLLLLHKKEDGIWSTDILKDQKEPKNKTFLRCEAKNYSGRFTCWWLTTISTDLTFSVKSSRGSSDPQGVTCGAATLSAERVRGDNKEYEYSVECQEDSACPAAEESLPIEVMVDAVHKLKYENYTSSFFIRDIIKPDPPKNLQLKPLKNSRQVEVSWEYPDTWSTPHSYFSLTFCVQVQGKSKREKKDRVFTDKTSATVICRKNASISVRAQDRYYSSSWSEWASVPCS
For B1, in series [4], the CD62L positive cells result is “enriched”.

B2: rhIL-7: recombinant human (rh) IL-7 (protein, UniProt P13232 26-177, looked up)
Interleukin-7: DCDIEGKDGKQYESVLMVSIDQLLDSMKEIGSNCLNNEFNFFKRHICDANKEGMFLFRAARKLRQFLKMNSTGDFDLHLLKVSEGTTILLNCTGQVKGRKPAALGEAQPTKSLEENKSLKEQKKLNDLCFLKRLLQEIKTCWNKILMGTKEH
Regarding B2, the “rhIL-7 support giving viability equal to mbIL-7-engineered TILs” value in series [5] is 10 ng/mL.
